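48-hour exposure; five concentrations; linearly interpolated endpoints. Abbreviation: GI50, concentration required for 50% inhibition of growth. At the TGI there is no net growth.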 Where a SMILES comes first, the peptide text is derived from it. Bridges are numbered along the chain shown (N, C = ends).
Key:
Experiment in all cases: growth of human tumour cells (NCI), 48 h
786-0 renal = test system: 786-0 renal
A498 renal = test system: A498 renal
HCT-116 colon = test system: HCT-116 colon
NCI-H23 lung = test system: NCI-H23 lung
OVCAR-3 ovarian = test system: OVCAR-3 ovarian
OVCAR-4 ovarian = test system: OVCAR-4 ovarian
RPMI-8226 leukemia = test system: RPMI-8226 leukemia
SF-268 CNS = test system: SF-268 CNS
CAKI-1 renal = test system: CAKI-1 renal
PC-3 prostate = test system: PC-3 prostate

| Structure (SMILES) | TGI (786-0 renal) | TGI (A498 renal) | TGI (HCT-116 colon) | TGI (NCI-H23 lung) | TGI (OVCAR-3 ovarian) | TGI (OVCAR-4 ovarian) | TGI (RPMI-8226 leukemia) | TGI (SF-268 CNS) | TGI (CAKI-1 renal) | GI50 (786-0 renal) | GI50 (CAKI-1 renal) | GI50 (HCT-116 colon) | GI50 (NCI-H23 lung) | GI50 (OVCAR-3 ovarian) | GI50 (PC-3 prostate) | TGI (PC-3 prostate) | GI50 (SF-268 CNS) | GI50 (RPMI-8226 leukemia) | GI50 (A498 renal) | GI50 (OVCAR-4 ovarian) |
| --- | --- | --- | --- | --- | --- | --- | --- | --- | --- | --- | --- | --- | --- | --- | --- | --- | --- | --- | --- | --- |
| CCCc1nn(C)c(CCC(=O)N(Cc2ccccc2)Cc2ccccc2)c1CC | > 100 µM | > 100 µM | > 100 µM | > 100 µM | > 100 µM | > 100 µM | > 100 µM | > 100 µM |  |  |  |  |  |  |  |  |  |  |  |  |
| CC(=O)OC(C)(C)C[N+](=O)[O-] | > 100 µM |  | > 100 µM | > 100 µM | > 100 µM | > 100 µM | > 100 µM | > 100 µM | > 100 µM |  |  |  |  |  |  |  |  |  |  |  |
| CCCCCC1CC=CC(NC(=O)OCc2ccccc2)C1/C=C/CCCC1OCCO1 (configuration not stated) | > 100 µM | 98.7 µM | > 100 µM | > 100 µM | > 100 µM | > 100 µM | > 100 µM | > 100 µM | > 100 µM |  |  |  |  |  |  |  |  |  |  |  |
| COC(=O)/C=C(C)/C=C/c1c(C)c(C(C)=O)c(C)n1C | > 100 µM | > 100 µM | > 100 µM | > 100 µM | > 100 µM | > 100 µM | > 100 µM | > 100 µM | > 100 µM |  |  |  |  |  |  |  |  |  |  |  |
| CCc1cc2c(Nc3ccccc3)c3c(nc2s1)CCCC3 | > 100 µM | > 100 µM | > 100 µM |  | > 100 µM | > 100 µM | 87 µM | > 100 µM |  |  |  |  |  |  |  |  |  |  |  |  |
| NS(=O)(=O)c1ccc(-n2nc(-c3ccccc3)cc2-c2cc(O)ccc2O)cc1 | > 100 µM |  | > 100 µM | > 100 µM | > 100 µM |  |  | > 100 µM | > 100 µM | 90.8 µM | > 100 µM | 40.8 µM | 77.1 µM | > 100 µM | 77.6 µM | > 100 µM | > 100 µM |  |  |  |
| CCN(CC)CCCNc1nccc2c(C)c3[nH]c4ccncc4c(=O)c3cc12 | 11.9 µM | 24 µM | 2.03 µM | 7.34 µM | 8.88 µM | 3.07 µM | 13.7 µM | 4.46 µM | 16.8 µM |  |  |  |  |  |  |  |  |  |  |  |
| CCC(C)C1NC(=O)C(CC(C)C)NC(=O)C(C(C)C)NC(=O)C2CSSCC(NC1=O)C(=O)N2 (configuration not stated) (cyclo(CCVLI); disulfide 1-2; configuration not given here) | 0.315 µM |  | 0.187 µM | 0.277 µM | 0.395 µM | 0.362 µM |  |  | 5.41 µM |  |  |  |  |  |  | 0.329 µM |  |  |  |  |
| Nc1nc(N)c(CCCCc2ccccc2)c(/C=C/c2ccc([N+](=O)[O-])cc2)n1 | 7.34 µM |  | 6.52 µM | 33.4 µM | 8.4 µM | 18.4 µM | 19 µM | 48.2 µM | 31.6 µM |  |  |  |  |  |  |  |  |  |  |  |
| O=c1oc2c(O)c(O)cc3c(=O)oc4c(O)c(O)cc1c4c23 | 71.6 µM | > 100 µM | > 100 µM | > 100 µM | 82.2 µM | > 100 µM | > 100 µM | > 100 µM | 29.5 µM |  |  |  |  |  |  |  |  | > 100 µM |  |  |
| C=C(C)C1CC=C(C)C(O)([C@@]2(O)C[C@H](C(=C)C)CC=C2C)C1 (some centres not stated) | 31.3 µM | 58.2 µM | 40.1 µM | 43.3 µM | 29.6 µM | 56.2 µM | 48.7 µM | > 100 µM | 51.8 µM |  |  |  |  |  |  |  |  |  |  |  |
| CC[C@@]1(O)C(=O)OCc2c1cc1n(c2=O)Cc2cc3cccc(N)c3nc2-1 | 8.72 µM | 60.3 µM | > 100 µM | 31.5 µM | > 100 µM | > 100 µM | > 100 µM | > 100 µM |  | 2.38 µM |  | 16.8 µM | 5.81 µM | 66.8 µM |  |  | 2.51 µM | > 100 µM | 7.17 µM | 7.57 µM |
| CCC1=CCC(P(=O)(c2ccccc2)c2ccccc2)CC1C (configuration not stated) | > 100 µM | > 100 µM | 63.8 µM | > 100 µM | > 100 µM | > 100 µM | 52.9 µM | > 100 µM | > 100 µM |  |  |  |  |  |  |  |  |  |  |  |
| CC1(C)C2=CCCC(=O)[C@@]2(C)CC[C@@H]1O | > 100 µM |  | > 100 µM | > 100 µM | > 100 µM | > 100 µM | > 100 µM | > 100 µM | > 100 µM |  |  |  |  |  |  |  |  |  |  |  |
| O=C(CO)CC(=O)C(=O)Nc1cccc(C(F)(F)F)c1 | > 100 µM |  | > 100 µM | > 100 µM | > 100 µM | > 100 µM | > 100 µM | > 100 µM | > 100 µM |  |  |  |  |  |  |  |  |  |  |  |
| COc1ccc(C(=O)Nc2ccn(CCOC(=O)c3ccc(OC)cc3)c(=O)n2)cc1 | > 100 µM | > 100 µM | > 100 µM |  | > 100 µM | > 100 µM | > 100 µM | > 100 µM | > 100 µM |  |  |  |  |  |  |  |  |  |  |  |
